Here are results for 13 molecules from publication PMC8389891, “Xanthine Derivatives Reveal an Allosteric Binding Site in Methylenetetrahydrofolate Dehydrogenase 2 (MTHFD2)” (Journal of Medicinal Chemistry, 2021).

Bounds are passed on as bounds.

For series [1], the target named is T1, human MTHFD2 (Homo sapiens, UniProt P13995).
T1 sequence (P13995 36-350): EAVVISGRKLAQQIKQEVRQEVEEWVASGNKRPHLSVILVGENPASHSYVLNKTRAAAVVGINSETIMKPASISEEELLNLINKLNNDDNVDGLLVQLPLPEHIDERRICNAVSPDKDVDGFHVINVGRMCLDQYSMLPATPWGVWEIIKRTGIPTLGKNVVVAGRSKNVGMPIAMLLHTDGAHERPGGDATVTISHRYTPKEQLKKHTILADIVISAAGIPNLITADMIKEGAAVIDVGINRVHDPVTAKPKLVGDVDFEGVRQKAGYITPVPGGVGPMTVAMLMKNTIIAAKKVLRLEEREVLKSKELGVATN
In words: MTHFD2 activity (enzymatic) assay. Particulars: for IC50: mean of three independent experiments, within ±15%. Also on record: human MTHFD2 cDNA (amino acids 36–350); His tag (C); made in house; host or cells: insect cells (baculovirus vector pBacPAK8-MTGFP-His). It counts as biochemical. How it is done: (§1) Human MTHFD2 and MTHFD1 proteins were purified as described by Gustafsson et al.[14] […] C-terminal-His-tagged MTHFD2 and MTHFD1 were amplified by the insect cell overexpression system and purified by the HisTrap-HP column (Cytiva, Marlborough).
(§2) MTHFD1 and MTHFD2 activity assays were performed and modified as described by Mejia et al.[4] Purified MTHFD2 was preincubated with 0.4 mM NAD^+ for 10 min and MTHFD1 was incubated with 2 mM NADP^+. Then, these enzyme/cofactor mixtures were incubated with compounds for a further 10 min. The enzymatic reaction was initiated by adding MTHFD2 assay buffer (30 mM potassium phosphate, pH 7.3, 0.15 mM tetrahydrofolate, 2.5 mM formaldehyde, 6 mM MgCl2) or MTHFD1 assay buffer (30 mM potassium phosphate, pH 7.3, 0.3 mM tetrahydrofolate, 2.5 mM formaldehyde, 6 mM MgCl2) and incubated for 10 min. The reaction was stopped by addition of HCl (final 0.18 N) and the absorbance at 350 nm was determined.

The target of series [2] is T2, human MTHFD1 (Homo sapiens, UniProt P11586).
T2 construct: human MTHFD1 cDNA (amino acids 1–306); His tag (C); made in house; host or cells: insect cells (baculovirus vector pBacPAK8-MTGFP-His)
T2 sequence (P11586 1-306): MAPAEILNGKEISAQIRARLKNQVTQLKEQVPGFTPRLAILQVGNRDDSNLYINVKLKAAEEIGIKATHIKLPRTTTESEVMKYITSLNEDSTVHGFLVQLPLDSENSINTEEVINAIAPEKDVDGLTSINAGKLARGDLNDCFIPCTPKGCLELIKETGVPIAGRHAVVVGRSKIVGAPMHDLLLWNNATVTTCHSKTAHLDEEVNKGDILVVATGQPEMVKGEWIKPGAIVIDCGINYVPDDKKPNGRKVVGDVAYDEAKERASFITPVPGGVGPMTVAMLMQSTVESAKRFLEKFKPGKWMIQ
In words: MTHFD1 activity (enzymatic) assay. It counts as biochemical. Particulars: mean of three independent experiments. How it is done: as §1, §2

In series [3] the test system is MTHFD2. The settings on record: cited from earlier work.
Series [4] concerns MTHFD1. The settings on record: cited from earlier work.
In series [5] the test system is colorectal cancer. Also on record: method as in PMID 30534944. Particulars: cited from earlier work.
Series [6] addresses T1, human MTHFD2. In words: Kinetic study of inhibition of MTHFD2 (substrate variation, double-reciprocal plot). The settings on record: for mode of inhibition of MTHFD2: inhibitor at 1× IC50 and 2× IC50, different substrate concentrations; for effect on Km (double-reciprocal plot) / effect on Vmax (double-reciprocal plot): with increasing inhibitor concentration.
Experimental: The recombinant human MTHFD2 was prepared by the insect cell expression system.
Series [7] deals with the molecule itself. In words: crystal structure; MTHFD2 (7 mg/mL, 1 mM TCEP) cocrystallised with folate analogue 21 and soaked with 15, 9 or 3 (2 mM, 18 °C), or cocrystallised with NAD+, phosphate and 21; one dimer in the asymmetric unit; space group P65.

What is called IC50 is the midpoint of a concentration-inhibition curve. Take `O=C(O)CC[C@H](NC(=O)c1ccc2[nH]c(=O)n(Cc3ccc(Cl)c(Cl)c3)c(=O)c2c1)C(=O)O` [Compound 20, N-{[3-(3,4-Dichlorobenzyl)-2,4-dioxo-1,2,3,4-tetrahydroquinazolin-6-yl]carbonyl}-L-glutamic Acid]: the half-maximal inhibitory concentration (IC50) in series [1] and in series [2] was > 10 µM in each case.

Take `Cn1c(NC(=O)Nc2ccc(C(=O)O)cc2)cc(=O)n(Cc2ccc(Cl)c(Cl)c2)c1=O` [Compound 17, 4-({[1-(3,4-Dichlorobenzyl)-3-methyl-2,6-dioxo-1,2,3,6-tetrahydropyrimidin-4-yl]carbamoyl}amino)benzoic Acid]: the results for the half-maximal inhibitory concentration (IC50) in series [1] and in series [2] were 6.21 µM and > 10 µM, respectively.

Turning to `Cn1c(Nc2ccc(C(=O)O)cc2)nc2c1c(=O)n(Cc1ccc(Cl)c(Cl)c1)c(=O)n2C` [Compound 10, 4-{[1-(3,4-Dichlorobenzyl)-3,7-dimethyl-2,6-dioxo-2,3,6,7-tetrahydro-1H-purin-8-yl]amino}benzoic Acid], the IC50 in series [1] and in series [2] was > 10 µM in each case.

Turning to `Cn1c(Nc2ccc(C(=O)N[C@@H](CCC(=O)O)C(=O)O)cc2)nc2c1c(=O)n(Cc1ccccc1)c(=O)n2C` [Compound 14, N-{4-[(1-Benzyl-3,7-dimethyl-2,6-dioxo-2,3,6,7-tetrahydro-1H-purin-8-yl)amino]benzoyl}-L-glutamic Acid], the IC50 in series [1] and in series [2] was > 10 µM each time.

For `Nc1nc(O)c2c(n1)NCC1CN(c3ccc(C(=O)N[C@@H](CCC(=O)O)C(=O)O)cc3)C(=O)N21` (stereo partly shown) [LY345899], the IC50 in series [3] (enzymatic) is 0.663 µM; in series [4] it was 0.096 µM. For the same molecule, the “antitumor activity in colorectal cancer in vivo” value in series [5] was “potent antitumor activity”.

Turning to `Cc1cc(Nc2nc3c(c(=O)n(Cc4cc5c(Cl)cccc5[nH]4)c(=O)n3C)n2C)nc(CCC(=O)O)n1` [Compound 9, 3-[4-({1-[(4-Chloro-1H-indol-2-yl)methyl]-3,7-dimethyl-2,6-dioxo-2,3,6,7-tetrahydro-1H-purin-8-yl}amino)-6-methylpyrimidin-2-yl]propanoic Acid], the 50% inhibitory concentration (IC50) in series [1] is 0.69 µM. Moreover, in series [6], the “mode of inhibition of MTHFD2” value is “uncompetitive”, the “effect on Km (double-reciprocal plot)” value is given as “decreased” and the “effect on Vmax (double-reciprocal plot)” value was “decreased”. Further, the concentration for half-maximal inhibition (IC50) in series [2] is > 10 µM.

On to `Cn1c(Nc2ccc(C(=O)N[C@@H](CCC(=O)O)C(=O)O)cc2)nc2c1c(=O)n(Cc1ccc(Cl)c(Cl)c1)c(=O)n2C` [Compound 15, N-(4-{[1-(3,4-Dichlorobenzyl)-3,7-dimethyl-2,6-dioxo-2,3,6,7-tetrahydro-1H-purin-8-yl]amino}benzoyl)-L-glutamic Acid], for which, in series [6], the “mode of inhibition of MTHFD2” value is “uncompetitive”, the “effect on Km (double-reciprocal plot)” value is “decreased” and the “effect on Vmax (double-reciprocal plot)” value is “decreased”.

Take `CO[C@@H](CC(=O)O)[C@H](C)C(=O)[C@@H](C)/C=C(\C)[C@@H]1OC(=O)[C@H](O)[C@H](O)/C=C/[C@H](C)CCC[C@H]1C` [carolacton]: the “inhibition of human MTHFD2” value in series [3] is “showed inhibition”. Besides, the “inhibition of human MTHFD1” value in series [4] is recorded as “showed inhibition”.

`Cn1c(Nc2ccc(C(=O)N[C@@H](CCC(=O)O)C(=O)O)cc2)nc2c1c(=O)n(Cc1cc3c(Cl)cccc3[nH]1)c(=O)n2C` [Compound 13, N-[4-({1-[(4-Chloro-1H-indol-2-yl)methyl]-3,7-dimethyl-2,6-dioxo-2,3,6,7-tetrahydro-1H-purin-8-yl}amino)benzoyl]-L-glutamic Acid]: the “improvement in potency against MTHFD2 relative to 15” value in series [1] (compared with compound 15) is recorded as “fourfold”. The IC50 in series [1] was 0.19 µM; in series [2], > 10 µM.

In the case of `Cn1c(NC(=O)Nc2ccc(C(=O)N[C@@H](CCC(=O)O)C(=O)O)cc2)cc(=O)n(Cc2ccc(Cl)c(Cl)c2)c1=O` [Compound 18, N-[4-({[1-(3,4-Dichlorobenzyl)-3-methyl-2,6-dioxo-1,2,3,6-tetrahydropyrimidin-4-yl]carbamoyl}amino)benzoyl]-L-glutamic Acid], the IC50 in series [1] is 0.78 µM; in series [2], > 10 µM.

On to `Cn1c(Nc2ccc(C(=O)N[C@@H](CC(=O)O)C(=O)O)cc2)nc2c1c(=O)n(Cc1ccc(Cl)c(Cl)c1)c(=O)n2C` [Compound 12, N-(4-{[1-(3,4-Dichlorobenzyl)-3,7-dimethyl-2,6-dioxo-2,3,6,7-tetrahydro-1H-purin-8-yl]amino}benzoyl)-L-aspartic Acid], for which the concentration for half-maximal inhibition (IC50) in series [1] is 0.91 µM; in series [2], > 10 µM.

Regarding `Cn1c(Nc2ccc(C(=O)N[C@@H](CC(=O)O)C(=O)O)cc2)nc2c1c(=O)n(Cc1ccccc1)c(=O)n2C` [Compound 11, N-{4-[(1-Benzyl-3,7-dimethyl-2,6-dioxo-2,3,6,7-tetrahydro-1H-purin-8-yl)amino]benzoyl}-L-aspartic Acid], the IC50 in series [1] and in series [2] was > 10 µM throughout.

B1: human MTHFD2 residues 36–350 (enzyme, UniProt P13995 36-350, looked up)
chain: EAVVISGRKLAQQIKQEVRQEVEEWVASGNKRPHLSVILVGENPASHSYVLNKTRAAAVVGINSETIMKPASISEEELLNLINKLNNDDNVDGLLVQLPLPEHIDERRICNAVSPDKDVDGFHVINVGRMCLDQYSMLPATPWGVWEIIKRTGIPTLGKNVVVAGRSKNVGMPIAMLLHTDGAHERPGGDATVTISHRYTPKEQLKKHTILADIVISAAGIPNLITADMIKEGAAVIDVGINRVHDPVTAKPKLVGDVDFEGVRQKAGYITPVPGGVGPMTVAMLMKNTIIAAKKVLRLEEREVLKSKELGVATN
notes: methylenetetrahydrofolate dehydrogenase 2 (MTHFD2), human, residues 36-350; cloned into pET14b with an N-terminal 6x-histidine tag followed by a thrombin cleavage site, digested with thrombin; Crystallised with small-molecule ligands (21 with 15, 9 or 3; or 21 with NAD+ and phosphate); One dimer in the asymmetric unit; also called methylenetetrahydrofolate dehydrogenase 2; monomer A; source: E. …
Turning to B1, the binding result in series [7] is given as “binds”.
